Key:
[1] = test system: Azoarcus sp. DD4; test: Inhibition of 1,1-DCE on dioxane degradation by DD4 resting cells; type: cell-based; conditions: dioxane 20.9±0.3 mg/L and 1,1-DCE 5.0±0.4 mg/L, 24 hr
Procedure: Inhibition of 1,1-DCE on dioxane degradation by Azoarcus sp. DD4. Though DD4 can degrade both dioxane and 1,1-DCE, the effect(s) of 1,1-DCE on dioxane biodegradation was investigated. DD4 cells were harvested at the exponential growth phase and washed by NMS medium three times. Three treatments were prepared with the resting cells by the exposure of dioxane (19.7±1.2 mg/L), 1,1-DCE (5.5±0.1 mg/L), and both dioxane (20.9±0.3 mg/L) and 1,1-DCE (5.0±0.4 mg/L). Concentrations of 1,1-DCE and dioxane were monitored using GC at selected time intervals over 24 hr. Abiotic controls were treated identically. All experiments were performed in duplicate vials. […] Thus, it is very plausible that DD4 can resume its capability of degrading dioxane once 1,1-DCE is depleted by DD4.

[2] = test system: Azoarcus sp. DD4; test: Biodegradation of concurrent dioxane and 1,1-DCE by DD4 in microcosms; type: cell-based; conditions: for effect of presence on utilization of 1-propanol and proliferation of DD4: 1-propanol as primary substrate
Procedure: Biodegradation of concurrent dioxane and 1,1-DCE by Azoarcus sp. DD4. To evaluate the performance of DD4 in removing dioxane and 1,1-DCE when both compounds are concurrently present, microcosms were prepared with DD4 inoculum in NMS medium and dosed with dioxane and 1,1-DCE. Two primary substrates were used, including propane and 1-propanol.

[3] = test system: Psuedonocardia dioxanivorans CB1190; conditions: previous studies; cited from earlier work
[4] = test system: Azoarcus sp. DD4; test: Propane and dioxane degradation by DD4 with or without ATU; type: cell-based; conditions: propane as primary substrate; dioxane degradation thus prolonged
Procedure: Allylthiourea (ATU) was reported to inhibit the particulate MOs involved in nitrification and alkane degradation in various bacteria. To exploit the effects ofprm-deletion on the propane and dioxane degradation and further to distinguish the soluble versus particulate MO category the DD4 dioxane degrader belongs to, the wild-type and prm-deleted DD4 strains were cultured with and without the presence of ATU using propane as a primary substrate to cometabolize dioxane. Duplicate abiotic controls were prepared in parallel. The propane and dioxane depletion were monitored over time by GC analysis. Now referring to FIGS. 11a and 11b, prmADBC is only partially correlated with the propane degradation but not associated with the dioxane cometabolism.

[5] = test system: Azoarcus sp. DD4; conditions: propane as substrate
Procedure: DD4's adaptability to pH, salinity and temperature. To identify its optimum growth conditions, DD4 was cultured with propane as the substrate under different pHs, temperatures, and salinities. The pHs of NMS medium were adjusted to 4.0, 5.0, 6.0, 7.0, 8.0, 9.0 and 10.0 with appropriate amount of 1 M HCl or 1 M NaOH. The NMS mediums were cultured under 10° C., 15° C., 20° C., 25° C., 30° C., 35° C., and 40° C. The salinities of NMS medium were adjusted to 0%, 0.5%, 1.0%, 1.5%, 2.0%, 2.5%, 3.0%, and 3.5% (w/v) with NaCl. 6 mL of propane (equivalent to 6% of the head space volume) was injected into the sealed bottles in all these assays. DD4 was inoculated at the initial concentration of 0.05 measured as OD600 and cultured under 30° C., 150 rpm for 72 h while shaking. The optical density (OD) values of bacterial suspensions were determined with spectrophotometer under 600 nm.

[6] = test system: Mycobacterium sp. DT1; test: Concurrent biodegradation of dioxane and TCE by DT1 in simulated microcosms; type: cell-based
Procedure: Concurrent biodegradation of dioxane and TCE by Mycobacterium sp. DT1. To evaluate the performance of DT1 in the removal of dioxane and TCE when both compounds are concurrently present, simulated microcosms were prepared with DT1 inoculum in BSM medium and dosed with dioxane and TCE. Propane was used as the primary substrate. […] After a short lag time (1 d), all the substrates, i.e. propane, dioxane, and TCE, were degraded synchronically. At the end of day 2, the initial 71.1, 20.2, and 2.15 mg/L of propane, dioxane, and TCE were degraded to 25.8, 11.3, and 1.59 mg/L, respectively. TCE was degraded to below the MDL of the GC-FID methods employed (i.e., 0.01 mg/L), and 85% of dioxane was removed from the simulated microcosm after 4 days incubation.

[7] = test system: Azoarcus sp. DD4; test: Inhibition of dioxane, 1,1-DCE and propane degradation by acetylene (DD4 resting cells); type: cell-based; conditions: resting cells pre-incubated with acetylene 10% headspace volume, 20 minutes
Procedure: Inhibition of dioxane, 1,1-DCE, and propane degradation by acetylene. Acetylene is an irreversible suicide substrate that inactivates bacterial monooxygenases (MOs). Prior S. and Dalton H, 1985. Acetylene as a suicide substrate and active site probe for methane monooxygenase from Methylococcus capsulatus (Bath). FEMS Microbiology Letters. 29, 105-109. […] After being washed with NMS three times, resting cells were pre-incubated with acetylene (10% headspace volume) for 20 minutes prior to the amendment of dioxane, 1,1-DCE, or propane. The effect of the inhibitor acetylene was studied by monitoring the depletion of dioxane, 1,1-DCE, and propane over time in the presence or absence of acetylene. Duplicate abiotic controls were prepared in parallel. The propane and dioxane depletion were monitored over time by GC analysis.

For `C=C(Cl)Cl` [1,1-DCE, 1,1-dichloroethylene], the “effect of presence on dioxane degradation by DD4 resting cells” value [1] was “greatly inhibited”, the “effect of presence on utilization of 1-propanol and proliferation of DD4” value [2] was “did not inhibit” and the “effect of presence on degradation of dioxane and consumption of propane for growth” value ([2]; propane as primary substrate, NMS microcosm) was “significantly inhibited”. The “effect of exposure on dioxane degradation by CB1190” value [3] was “significantly prohibit”.

With `C=CCNC(N)=S` [ATU, Allylthiourea] the “effect on propane consumption” value [4] was “partially inhibit”.

With `[Cl-].[Na+]` [NaCl] the “optimal growth parameter, NaCl” value ([5]; 72 h, OD600, w/v) was 0-1% and the “NaCl concentration under which DD4 could survive and maintain growth and cometabolic activity toward dioxane” value ([5]; w/v) was 0.0-3.0%.

In the case of `ClC=C(Cl)Cl` [TCE, trichloroethene], the “effect of presence on degradation of dioxane or consumption of propane for growth” value ([6]; DT1, BSM, propane as primary substrate) is reported as “no significant inhibition”.

For `C#C` [acetylene], the “effect of exposure on degradation of propane, 1,1-DCE and dioxane” value [7] was “completely prohibited”.

In the case of `C1COCCO1` [dioxane, 1,4-dioxane], the “effect on 1,1-DCE degradation by DD4 resting cells” value [1] is reported as “no inhibitory effects”, the “effect of presence on utilization of 1-propanol and proliferation of DD4” value [2] is reported as “did not inhibit” and the “dioxane removed after 4 days incubation” value ([6]; initial 20.2 mg/L) is reported as 85%.

Reference: patent publication US10603701B2, “Bioremediation of 1,4-dioxane and chlorinated aliphatic hydrocarbons by propanotrophic bacteria” (New Jersey Institute of Technology, priority 2018, dated 2020)
